{"source": "patent US11401516B2", "about": "“Channel modulators” (AUCKLAND UNISERVICES LIMITED, priority 2014, dated 2022)", "key": {"[1]": {"target": "T1, Cx43 GJ plaques in ARPE-19 cells (Homo sapiens, UniProt P17302)", "T1 construct": "a native human cell line, retinal pigmented epithelial cells (ARPE-19), which reportedly has an abundant expression of Cx43; endogenous in cells; host or cells: ARPE-19", "T1 sequence (P17302 2-382 limits assumed)": "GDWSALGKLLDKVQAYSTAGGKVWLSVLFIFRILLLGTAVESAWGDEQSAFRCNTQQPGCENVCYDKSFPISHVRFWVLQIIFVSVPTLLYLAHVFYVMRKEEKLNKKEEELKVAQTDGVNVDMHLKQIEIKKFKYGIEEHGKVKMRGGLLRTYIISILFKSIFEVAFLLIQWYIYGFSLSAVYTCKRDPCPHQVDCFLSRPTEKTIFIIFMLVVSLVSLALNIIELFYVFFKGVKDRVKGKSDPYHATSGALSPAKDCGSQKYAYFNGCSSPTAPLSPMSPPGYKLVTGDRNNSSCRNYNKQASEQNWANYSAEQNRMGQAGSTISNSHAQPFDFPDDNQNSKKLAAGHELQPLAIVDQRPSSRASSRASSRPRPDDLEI", "assay": "Immunocytochemistry and quantification of Cx43 plaques", "type": "cell-based", "method": "In the below Examples 3, 6 and 7 using human retinal epithelial (ARPE-19) cells, the cells were grown in DMEM/F: 12 (Invitrogen), supplemented with 10% fetal calf serum (FCS), 100 units/mL of penicillin, 100 μg/mL of streptomycin, and 0.25 μg/mL of Fungizone® Antimycotic (Invitrogen).\nCells were seeded at 0.05×10^6 per well in 8-well sterile glass microscope chamber slides (Falcon, Corning Life Sciences), and the monolayer was labeled for connexin expression at ˜90-100% confluency. The following steps were conducted at room temperature. Cells were fixed in 4% paraformaldehyde (P6148, Sigma-Aldrich) in PBS with 0.1 mM CaCl2 for 10 min, and washed three times in PBS with 0.1 mM CaCl2. After blocking in 10% normal goat serum in PBS with 0.1 mM CaCl2 for one hour, cells were incubated overnight in primary antibody solution (rabbit anti-Cx43, Sigma C6219) diluted in PBS with 0.1 mM CaCl2. The chamber slides were then washed three times with PBS containing 0.1 mM CaCl2 for 10 minutes, and incubated for a further 45 minutes in goat anti-rabbit Alexa 568 conjugated secondary antibody (Invitrogen #A11036). Cells were counter labeled with DAPI for 5 minutes and washed three times with PBS containing 0.1 mM CaCl2. Chamber wells were removed and cells were mounted anti-fade medium (Citiflour AF-1). Dilution ratios for specified primary and secondary antibodies were used according to manufacturer's recommendations.\nARPE-19 cells were grown until confluent in 8-well glass chamber-slides (BD Falcon). Confluent monolayers of ARPE-19 cells were incubated at a final concentration of 5 to 500 μM) Tonabersat, and/or 10 mM NH4Cl (H. Qin, et al., The Journal of biological chemistry 278, 30005 (Aug. 8, 2003)) in culture medium for 1 or 6 hours. Cells were fixed in 4% PFA (ProSciTech) at pH 7.4 for 10 min at room temperature, permeabilized with 0.05% Triton-X100 in PBS, and incubated in 10% normal goat serum to block non-specific labelling. Cells were rinsed three times with PBS containing 0.1 mM CaCl2 between each fixation, permeabilization, and blocking steps. Cx43 polyclonal rabbit antibody (C6219, Sigma, 1:2000) was applied for 24 hours, followed by a goat anti-rabbit Alexa Fluor® 568 secondary antibody (Invitrogen, 1:200) for 45 minutes. Nuclei were counterstained with DAPI (Invitrogen) at 10,000-fold dilution for 5 mins, and mounted with Citifluor™ mounting medium. Images were visualised and captured using a 63× oil immersion lens on an Olympus FV1000 upright confocal laser scanning microscope and software. The transfluor feature in MetaXpress® Image acquisition and analysis software (Version 5.3.0.1, Molecular Devices) was used to automate and quantify the total area of Cx43 plaques per image. Results represent mean±standard error and statistical tests were conducted using one-way ANOVA and Tukey's multiple comparisons test."}, "[2]": {"test_system": "hCMVEC cells", "assay": "Scrape load assay (Lucifer yellow dye transfer)", "type": "cell-based, human", "method": "In the below Examples 2, 4, 5, 8 and 10 using human cerebral microvascular endothelial cells (hCMVEC), cells were prepared by growing them in collagen coated (30 μg/mL) T25 or T75 flasks maintained in Medium M199 supplemented with 10% FCS, 1 μg/mL hydrocortisone, 3 ng/mL hFGF, 1 ng/mL hEGF, 10 μg/mL heparin, 1× penicillin streptomycin neomycin (Life Technologies), and cAMP (100 μL 100% cAMP to 100 mL media). Cells were maintained at 37° C. with 95% O2 and 5% CO2.\nIn this Example, human cerebral microvascular endothelial cells (hCMVEC) were grown in collagen coated (1 μg/mL) T25 flasks maintained in Medium M199 supplemented with 10% FBS, 1 μg/mL hydrocortisone, 3 ng/mL hFGF, 1 ng/mL hEGF, 10 μg/mL heparin and cAMP (100 μL 100% cAMP to 100 mL media) in a humidified atmosphere at 37° C. with 5% CO2. One day prior to experimentation, these cells were trypsinized and plated at a density of 4×10^5 cells/well in a collagen-coated 12 well-plate in the same medium. For treatments, cells were cultured in the presence of peptide5, a control gap junction channel blocker (carbenoxolone), or tonabersat for the respective time intervals prior to scrape dye loading. The blockers were also present in the respective scrape loading solutions.\nFor scrape loading the hCMVEC cells were washed three times with phosphate buffered saline (PBS) (without divalent cations). A solution of PBS+0.05% lucifer yellow was added to cells. The cells then received a scrape to the monolayer using a size 10 carbon steel surgical blade and incubated in the dark at 37° C. with 5% CO2 for 5 minutes. The cells were washed with PBS four times and then 1 mL of PBS added for fluorescent microscopy.\nThe live cells were then imaged on a Nikon TE2000E fluorescent microscope whilst maintained in a chamber heated to 37° C. with 5% CO2. Three images pairs were obtained at 10× magnification for each of a phase contrast image to view total cells and a fluorescent image to visualize Lucifer yellow using 488 nm excitation and a GFP filter block. Gap junctional communication was determined by counting the number of Lucifer yellow positive cells and presented as a percentage to the positive cells of the control group. Data was graphed as mean+standard error of the mean using Prism v5.02 software. Significance was determined through students two-tailed, unpaired, T Tests. *=p<0.05, **=[…], ***=p<0.001.\nAn in vitro scrape-loading assay with extracellular Lucifer Yellow (LY), a fluorescent dye that is transferred only through coupled GJs was performed to test whether Tonabersat inhibits GJ communication (M. H. el-Fouly, et al., Experimental cell research 168, 422 (February, 1987)). A single scrape wound was made to a confluent monolayer of hCMVEC cells to enable LY dye to gain access to the cytoplasm of cells at the edge of the wounded region and allow the dye to transfer to adjacent cells through GJs."}}, "note": "Entries after “also recorded” stand apart in the source; their conditions may differ."}
{"smiles": "CC(=O)c1ccc2c(c1)[C@H](NC(=O)c1ccc(F)c(Cl)c1)[C@H](O)C(C)(C)O2", "note": "[Tonabersat, N-[(3S,4S)-6-acetyl-3-hydroxy-2,2-dimethyl-3,4-dihydrochromen-4-yl]-3-chloro-4-fluorobenzamide]", "values": [{"measurement": "total area of Cx43 plaques per cell, normalized to untreated control", "setting": "[1]; 5 μM, 10 μM or 50 μM, 1 hour", "result": "no significant reduction in Cx43 plaques"}, {"measurement": "Connexin43 gap junction labelling", "setting": "[1]; 50 μM, 6 hours", "result": "most junctions have been internalised or lost; also recorded: total gap junction loss at cell-cell interfaces"}, {"measurement": "increase in Cx43 labelling with 10 mM NH4Cl compared to Tonabersat alone", "setting": "[1]; 100 μM, 1 hour", "result": 104.8, "unit": "%"}, {"measurement": "total area of Cx43 plaques per cell, normalized to untreated control", "setting": "[1]; 100 μM, 1 hour", "result": "52.8±5.6", "unit": "%"}, {"measurement": "total area of Cx43 plaques per cell, normalized to untreated control", "setting": "[1]; 100 μM, 6 hours", "result": "66.5±5.4", "unit": "%"}, {"measurement": "increase in Cx43 labelling with 10 mM NH4Cl compared to Tonabersat alone", "setting": "[1]; 200 μM, 1 hour", "result": 65.4, "unit": "%"}, {"measurement": "total area of Cx43 plaques per cell, normalized to untreated control", "setting": "[1]; 200 μM, 1 hour", "result": "63.2±5.6", "unit": "%"}, {"measurement": "total area of Cx43 plaques per cell, normalized to untreated control", "setting": "[1]; 200 μM, 6 hours", "result": "62.5±2.3", "unit": "%"}, {"measurement": "total area of Cx43 plaques per cell, normalized to untreated control", "setting": "[1]; 500 μM, 6 hours", "result": "60.2±13.6", "unit": "%"}, {"measurement": "Connexin43 gap junction labelling", "setting": "[1]; 100 micromolar, 6 hours", "result": "very little Connexin43 labelling remains"}, {"measurement": "concentration at which GJs are uncoupled", "setting": "[2]", "result": "≥ 50", "unit": "µM"}, {"measurement": "time to gap junction uncoupling effect", "setting": "[2]; 50 μM", "result": "≤ 1", "unit": "min"}, {"measurement": "gap junction uncoupling (LY dye transfer)", "setting": "[2]; 50 μM added immediately", "result": "did not significantly reduce GJ coupling"}, {"measurement": "gap junction uncoupling (LY dye transfer)", "setting": "[2]; 50 μM added immediately, listed as tonabersat", "result": "statistically significant gap junction uncoupling effect"}, {"measurement": "gap junction uncoupling (LY dye transfer)", "setting": "[2]; 50 μM, 1 hour prior to the assay", "result": "did not significantly reduce GJ coupling"}, {"measurement": "LY positive cells compared to control", "setting": "[2]; 50 μM, 2 hours", "result": "72.5±7.4", "unit": "%"}, {"measurement": "LY positive cells compared to control", "setting": "[2]; 50 μM, 6 hours", "result": "62.8±7.4", "unit": "%"}, {"measurement": "LY positive cells compared to control", "setting": "[2]; 50 μM, 24 hours", "result": "50.5±8.4", "unit": "%"}, {"measurement": "LY positive cells compared to control", "setting": "[2]; 100 μM", "result": "46.7±7.8", "unit": "%"}, {"measurement": "LY positive cells compared to control", "setting": "[2]; 0.1, 1 and 10 μM, 2 hours", "result": "no significant reduction in LY positive cells"}, {"measurement": "LY positive cells compared to control", "setting": "[2]; 0.1, 1 and 10 μM, 24 hours", "result": "no significant reduction in LY positive cells"}]}
